In one data set the target is P-gp (Homo sapiens, UniProt P08183). The experiment in a line: in vitro. It is filed as cell-based. The settings on record: pH 7.4, drug alone (Digoxine 10 μM; TAF 100 μM). The protocol: (§1) Cells were treated with drugs as follows:
(§2) The sample were analyzed on LCMS-MS.

Data set [1] in a line: Caco-2 unidirectional assay (A-B), permeability. The note with it: human, Caco-2. Here is the method: as §1
(§3) Stock preparations: 10 mM stocks of all the drugs were prepared in DMSO. The test concentrations were further prepared in HBSS buffer containing 10 mM MES hydrate pH 6.8 as per the plate plan. Also, HBSS buffer with 10 mM HEPES with pH 7.4 was prepared.
as §2
Background: Caco-2 monolayers are a common model of the intestinal barrier.

Data set [2] has as its system Caco-2 cells. The experiment in a line: Caco-2 unidirectional assay (A-B), permeability. Here is the method:
as §1, §3, §2

The nature of the next data set: in vitro. The settings on record: human, Caco-2, pH 7.4.
A short description of data set [3]: Caco-2 bidirectional assay, effect of piperine on permeability of darunavir. It is filed as in vitro ADME. The settings on record: human, Caco-2, pH 7.4. Here is the method: as §1, §2
Data set [4] is described as follows: Caco-2 bidirectional assay, effect of piperine on permeability of dolutegravir. The settings on record: human, Caco-2, pH 7.4. Here is the method:
as §1
(§4) The samples were analyzed on LCMS-MS.

Data set [5] is described as follows: Caco-2 bidirectional assay, effect of piperine and tetrahydropiperine on permeability of TDF. The settings on record: human, Caco-2, pH 7.4.
Method: Caco-2 cells were cultured in MEM media with 10% serum and seeded at a density of 75000 cells per mL and cultured for 21 days in a 24-well trans-well plate at 37° C., 5% CO2. The monolayer integrity was checked intermittently (Day 0-21) using Trans Epithelial Electric Resistance (TEER). Cells were treated with drugs as follows:
400 μL samples were added to the wells as per the plate setup to the apical side in duplicates with 800 μL HBSS pH 7.4 in the basal wells. Samples were collected at 60, 90 and 120 minutes from the basal side. Mass balance samples at 0 and 120 minutes were collected from the apical side.
For B-A, 800 μL of the respective dilutions were added to the basal side in duplicates with 400 μL HBSS pH 7.4 in the apical wells. Samples were collected at 60, 90 and 120 minutes from the apical side. Mass balance samples at 0 and 120 minutes were collected from the basal side.
The sample were analyzed on LCMS-MS. At the end of the experiment the monolayer integrity was checked using and Lucifer yellow, calculating the % rejection of Lucifer yellow by incubating cells with 100 μg/mL Lucifer.
For Lucifer yellow, % Lucifer Yellow Passage=[RFU (test)−RFU (blank)/RFU (equilibrium)−RFU (blank)]*100
The conditions of data set [6]: male, Wistar, rat, in vivo, 300 mg. Here is the method:
The objective of this non-GLP study was to determine the pharmacokinetics of the TDF alone and in combinations with piperine in different groups of male Wistar rats after single dose intravenous administration and oral administration. This study was performed with approval from the Institutional Animal Ethics Committee (IAEC) in accordance with the requirement of Committee for the Purpose of Control and Supervision of Experiments on Animals (CPCSEA), India.
An equal volume (4.72 mL) of each formulation was mixed in separate vials to get 5 mL/kg.
An equal volume (5.61 mL) of each formulation was mixed in separate vials to get 5 mL/kg.
Bioanalysis was performed using fit-for-purpose LC-MS/MS method for the quantification of TDF and PMPA in rat plasma samples. […]
Plasma pharmacokinetic parameters were calculated using the non-compartmental analysis tool of Phoenix software (Version 6.3) and were determined from individual animals in each group. The peak plasma concentration (Cmax), time to achieve peak plasma concentration (Tmax), the area under the plasma concentration-time curve (AUC0-t and AUCinf), AUC Extra (%), elimination half-life (T½), clearance (CL), volume of distribution Vd (L/kg) and Mean residence time (MRT) were calculated from the intravenous group. […]

Data set [7] deals with Caco-2 cells. Put plainly: Caco-2 bidirectional assay, effect of piperine on permeability of dolutegravir. The settings on record: in words. Here is the method:
as §1, §4

Counter-ions that a name gives are not always drawn.

5 compounds from patent publication US11612612B2, “Pharmaceutical compositions” (CIPLA LIMITED, priority 2016, dated 2023) can be followed below.

Chain of P-gp (P08183 whole entry): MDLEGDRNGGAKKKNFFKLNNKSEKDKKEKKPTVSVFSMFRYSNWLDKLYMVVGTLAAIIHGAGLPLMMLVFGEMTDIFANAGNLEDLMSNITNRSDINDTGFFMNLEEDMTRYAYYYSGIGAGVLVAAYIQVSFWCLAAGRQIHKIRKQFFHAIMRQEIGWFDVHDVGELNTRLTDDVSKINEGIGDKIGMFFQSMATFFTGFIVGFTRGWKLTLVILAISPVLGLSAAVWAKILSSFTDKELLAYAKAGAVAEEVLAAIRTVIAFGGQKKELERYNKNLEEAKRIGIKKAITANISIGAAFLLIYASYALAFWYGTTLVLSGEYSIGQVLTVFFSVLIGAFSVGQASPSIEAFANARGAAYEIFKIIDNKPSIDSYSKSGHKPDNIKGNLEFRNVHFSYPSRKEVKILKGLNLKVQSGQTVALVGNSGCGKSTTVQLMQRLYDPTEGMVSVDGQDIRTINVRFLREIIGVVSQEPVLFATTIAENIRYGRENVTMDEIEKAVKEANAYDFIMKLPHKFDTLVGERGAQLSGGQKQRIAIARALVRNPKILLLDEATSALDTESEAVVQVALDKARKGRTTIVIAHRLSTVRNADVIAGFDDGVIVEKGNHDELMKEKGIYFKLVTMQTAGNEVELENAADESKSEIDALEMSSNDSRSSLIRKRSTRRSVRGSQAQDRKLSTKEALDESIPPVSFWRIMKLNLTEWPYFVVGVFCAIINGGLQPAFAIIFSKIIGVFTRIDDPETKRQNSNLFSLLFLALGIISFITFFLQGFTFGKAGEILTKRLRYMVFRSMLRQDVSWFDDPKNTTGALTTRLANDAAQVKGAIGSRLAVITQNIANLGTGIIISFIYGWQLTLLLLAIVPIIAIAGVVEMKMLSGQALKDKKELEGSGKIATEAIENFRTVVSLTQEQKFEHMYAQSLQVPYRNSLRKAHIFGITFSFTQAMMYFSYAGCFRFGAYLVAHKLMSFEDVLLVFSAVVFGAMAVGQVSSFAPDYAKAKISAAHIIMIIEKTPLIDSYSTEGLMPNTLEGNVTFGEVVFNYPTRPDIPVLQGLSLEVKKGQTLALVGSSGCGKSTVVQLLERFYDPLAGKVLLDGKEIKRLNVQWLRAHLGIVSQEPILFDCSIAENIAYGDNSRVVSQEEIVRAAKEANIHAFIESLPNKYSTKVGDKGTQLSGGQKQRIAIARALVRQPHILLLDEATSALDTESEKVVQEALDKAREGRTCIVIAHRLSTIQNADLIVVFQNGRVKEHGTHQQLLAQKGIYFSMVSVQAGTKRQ

As usually defined, the inhibition is the drop in the measured response relative to a control, in per cent. A lower inhibition goes with a response near the control. In general, Papp A→B refers to the apparent permeability from the apical to the basolateral side of a cell layer. A word on the Papp B→A: it is how fast a substance crosses the layer from the basolateral side. On to `CC(C)OC(=O)[C@H](C)N[P@](=O)(CO[C@H](C)Cn1cnc2c(N)ncnc21)Oc1ccccc1` [TAF, tenofovir alafenamide fumarate], for which, at P-gp, the inhibition at 120 min, 100 μM turned out to be 0%. In [1], this compound came in with a Papp A→B at 120 min, 50 μM of 5.86 ×10⁻⁶ cm/s and an apparent permeability from apical to basolateral (Papp A→B) at 120 min, 100 μM of 5.39 ×10⁻⁶ cm/s. The Permeability classification result in the data set on Caco-2 cells [2] (in words) is listed as “low to moderately permeable”. For the same compound, in the data set “in vitro”, the Papp A→B at 120 min is 3.45 ×10⁻⁶ cm/s and the basolateral-to-apical permeability (Papp B→A) at 120 min turned out to be 17.8 ×10⁻⁶ cm/s.

Regarding `CC(C)CN(C[C@@H](O)[C@H](Cc1ccccc1)NC(=O)O[C@H]1CO[C@H]2OCC[C@H]21)S(=O)(=O)c1ccc(N)cc1` [Darunavir], in data set [3], the Papp A→B at 120 min turned out to be 8.83 ×10⁻⁶ cm/s and the Papp B→A at 120 min came to 21.7 ×10⁻⁶ cm/s.

In data set [4], `C[C@H]1O[C@@H](O[C@H]2[C@@H](O)C[C@H](O[C@H]3[C@@H](O)C[C@H](O[C@H]4CC[C@@]5(C)[C@H](CC[C@@H]6[C@@H]5C[C@@H](O)[C@]5(C)[C@@H](C7=CC(=O)OC7)CC[C@]65O)C4)O[C@@H]3C)O[C@@H]2C)C[C@H](O)[C@@H]1O` [Digoxin] gave a Papp A→B at 120 min of 4.5 ×10⁻⁶ cm/s and a Papp B→A at 120 min of 28.9 ×10⁻⁶ cm/s. In data set [5], the Papp A→B at 120 min turned out to be 0.816 ×10⁻⁶ cm/s and the basolateral-to-apical permeability (Papp B→A) at 120 min worked out at 15.5 ×10⁻⁶ cm/s. In [3], the Papp A→B at 120 min stood at 1.12 ×10⁻⁶ cm/s and the Papp B→A at 120 min was determined as 14.2 ×10⁻⁶ cm/s. In the data set “in vitro”, this compound gave an apical-to-basolateral permeability (Papp A→B) of 1.94 ×10⁻⁶ cm/s and a Papp B→A of 20.5 ×10⁻⁶ cm/s.

The efflux ratio is the permeability from basolateral to apical divided by that in the opposite direction, in the common usage. Regarding `CC(C)OC(=O)OCOP(=O)(CO[C@H](C)Cn1cnc2c(N)ncnc21)OCOC(=O)OC(C)C` [TDF, tenofovir disoproxil fumarate], in data set [1], the Papp A→B at 120 min, 50 μM turned out to be 6.58 ×10⁻⁶ cm/s and the Papp A→B at 120 min, 100 μM stood at 6.35 ×10⁻⁶ cm/s. Also, the Permeability classification result with Caco-2 cells [2] (Caco-2) is “low to moderately permeable”. In data set [5], this compound came in with a Papp A→B at 120 min of 2.55 ×10⁻⁶ cm/s; a Papp A→B at 120 min, 200 μM of 3.77 ×10⁻⁶ cm/s; a Papp B→A at 120 min of 15.2 ×10⁻⁶ cm/s; a basolateral-to-apical permeability (Papp B→A) at 120 min, 200 μM of 14.3 ×10⁻⁶ cm/s. For the same compound, the efflux ratio at 120 min, 200 μM in data set [5] came out at 3.79. The Bioavailability in [6] is reported as 34.39±6.07.

In data set [4], `C[C@@H]1CCO[C@H]2Cn3cc(C(=O)NCc4ccc(F)cc4F)c(=O)c(O)c3C(=O)N12` [Dolutegravir] came in with a Papp A→B at 120 min of 40.2 ×10⁻⁶ cm/s and a Papp B→A at 120 min of 84.3 ×10⁻⁶ cm/s. Further, in the data set on Caco-2 cells [7], the Permeability classification entry is listed as “high permeable”.
